Values joined by “and” are separate entries in the source; they are usually repeats but may differ in a detail not shown here. Equal entries are not always repeated.
Tests used:
Experiment in all cases: biochemical
Type in all cases: biochemical
various kinases [1] = target: various kinases (Homo sapiens, UniProt Q07002); details: CDK18/cyclin Y
various kinases [2] = target: various kinases (Homo sapiens, UniProt Q16512); details: kinase PKN1 (PRK1); ZLYTE
various kinases [3] = target: various kinases (Homo sapiens, UniProt P00533, L861Q); details: EGFR (ErbB1) L861Q
various kinases [4] = target: various kinases (Homo sapiens, UniProt P17612); details: kinase PRKACA (PKA); ZLYTE
various kinases [5] = target: various kinases (Homo sapiens, UniProt P42345); details: FRAP1 (mTOR)
various kinases [6] = target: various kinases (Homo sapiens, UniProt Q00537); details: CDK17/cyclin Y
various kinases [7] = target: various kinases (Homo sapiens, UniProt P09769); details: FGR
various kinases [8] = target: various kinases (Homo sapiens, UniProt O00418); details: EEF2K
various kinases [9] = target: various kinases (Homo sapiens, UniProt O95819); details: MAP4K4 (HGK)
various kinases [10] = target: various kinases (Homo sapiens, UniProt P36507); details: MAP2K2 (MEK2)
various kinases [11] = target: various kinases (Homo sapiens, UniProt P41279); details: MAP3K8 (COT)
various kinases [12] = target: various kinases (Homo sapiens, UniProt Q15759); details: MAPK11 (p38 beta)
various kinases [13] = target: various kinases (Homo sapiens, UniProt P23458); details: JAK1
various kinases [14] = target: various kinases (Homo sapiens, UniProt P00519, F317I); details: ABL1 F317I
various kinases [15] = target: various kinases (Homo sapiens, UniProt P24723); details: kinase PRKCH (PKC eta); ZLYTE
various kinases [16] = target: various kinases (Homo sapiens, UniProt Q9H2X6); details: HIPK2
various kinases [17] = target: various kinases (Homo sapiens, UniProt Q8WTQ7); details: GRK7
various kinases [18] = target: various kinases (Homo sapiens, UniProt O60674)
various kinases [19] = target: various kinases (Homo sapiens, UniProt P42684); details: ABL2 (Arg)
various kinases [20] = target: various kinases (Homo sapiens, UniProt Q13557); details: CAMK2D (CaMKII delta)
various kinases [21] = target: various kinases (Homo sapiens, UniProt Q16816); details: PHKG1
various kinases [22] = target: various kinases (Homo sapiens, UniProt Q13153); details: PAK1
various kinases [23] = target: various kinases (Homo sapiens, UniProt P43405); details: kinase SYK; ZLYTE
various kinases [24] = target: various kinases (Homo sapiens, UniProt Q8TD19); details: NEK9
various kinases [25] = target: various kinases (Homo sapiens, UniProt P08581, M1250T); details: MET M1250T
various kinases [26] = details: for % Inhibition Average / % Inhibition Duplicate #1 / % Inhibition Duplicate #2: ZLYTE
various kinases [27] = target: various kinases (Homo sapiens, UniProt O43293); details: DAPK3 (ZIPK)
various kinases [28] = target: various kinases (Homo sapiens, UniProt Q15418); details: kinase RPS6KA1 (RSK1); ZLYTE
various kinases [29] = target: various kinases (Homo sapiens, UniProt P00533); details: EGFR (ErbB1)
various kinases [30] = target: various kinases (Homo sapiens, UniProt Q8N4C8); details: MINK1
various kinases [31] = target: various kinases (Homo sapiens, UniProt Q5VT25); details: CDC42 BPA (MRCKA)
various kinases [32] = target: various kinases (Homo sapiens, UniProt P22607, V555M); details: FGFR3 V555M
various kinases [33] = target: various kinases (Homo sapiens, UniProt P09619); details: PDGFRB (PDGFR beta)
For % Inhibition Average in this document: test concentration or dose not given here.
For % Inhibition Duplicate #1 in this document: test concentration or dose not given here.
For % Inhibition Duplicate #2 in this document: test concentration or dose not given here.

Sequence of various kinases (Homo sapiens, UniProt P24723) (P24723 whole entry): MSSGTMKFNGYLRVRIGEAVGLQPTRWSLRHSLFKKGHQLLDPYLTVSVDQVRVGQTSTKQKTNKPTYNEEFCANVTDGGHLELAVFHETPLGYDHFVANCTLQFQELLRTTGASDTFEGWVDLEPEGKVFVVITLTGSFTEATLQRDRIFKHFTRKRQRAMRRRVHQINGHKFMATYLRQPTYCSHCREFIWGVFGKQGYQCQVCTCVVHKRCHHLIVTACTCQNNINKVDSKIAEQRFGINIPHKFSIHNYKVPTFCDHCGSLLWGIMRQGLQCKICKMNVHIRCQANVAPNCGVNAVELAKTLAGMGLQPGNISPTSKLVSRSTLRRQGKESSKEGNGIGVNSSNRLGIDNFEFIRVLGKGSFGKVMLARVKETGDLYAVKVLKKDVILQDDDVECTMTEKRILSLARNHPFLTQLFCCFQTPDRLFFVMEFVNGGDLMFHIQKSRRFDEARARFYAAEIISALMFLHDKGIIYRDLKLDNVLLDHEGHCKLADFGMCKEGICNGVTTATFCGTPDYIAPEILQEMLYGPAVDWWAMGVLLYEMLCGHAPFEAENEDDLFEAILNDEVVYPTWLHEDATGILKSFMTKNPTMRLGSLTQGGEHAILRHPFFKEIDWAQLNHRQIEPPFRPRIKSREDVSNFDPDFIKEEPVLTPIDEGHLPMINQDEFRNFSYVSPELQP
Sequence of various kinases (Homo sapiens, UniProt Q16512) (Q16512 whole entry): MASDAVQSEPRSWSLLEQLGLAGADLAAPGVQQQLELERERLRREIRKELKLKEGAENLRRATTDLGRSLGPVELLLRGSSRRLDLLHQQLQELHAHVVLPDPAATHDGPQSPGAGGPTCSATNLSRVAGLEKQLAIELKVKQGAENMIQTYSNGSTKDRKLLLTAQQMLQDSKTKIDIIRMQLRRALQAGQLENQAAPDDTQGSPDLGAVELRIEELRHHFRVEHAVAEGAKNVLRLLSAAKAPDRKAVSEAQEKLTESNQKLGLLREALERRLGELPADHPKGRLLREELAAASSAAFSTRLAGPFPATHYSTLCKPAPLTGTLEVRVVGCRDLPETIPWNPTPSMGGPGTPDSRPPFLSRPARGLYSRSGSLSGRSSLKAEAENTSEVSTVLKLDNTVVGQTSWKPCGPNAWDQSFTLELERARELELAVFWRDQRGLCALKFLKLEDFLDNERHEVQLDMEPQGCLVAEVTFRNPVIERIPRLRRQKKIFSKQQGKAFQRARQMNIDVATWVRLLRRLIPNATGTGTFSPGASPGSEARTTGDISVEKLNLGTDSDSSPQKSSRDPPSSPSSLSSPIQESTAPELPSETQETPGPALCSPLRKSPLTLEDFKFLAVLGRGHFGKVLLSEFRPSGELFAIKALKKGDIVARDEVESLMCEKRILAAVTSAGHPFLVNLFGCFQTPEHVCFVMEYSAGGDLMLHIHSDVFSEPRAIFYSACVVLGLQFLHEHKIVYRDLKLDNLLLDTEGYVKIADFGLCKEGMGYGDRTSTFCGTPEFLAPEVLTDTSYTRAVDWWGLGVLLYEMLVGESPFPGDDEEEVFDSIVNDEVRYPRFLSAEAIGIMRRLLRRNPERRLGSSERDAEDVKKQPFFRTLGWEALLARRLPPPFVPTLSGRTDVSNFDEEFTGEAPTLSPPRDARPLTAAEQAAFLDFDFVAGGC
Sequence of various kinases (Homo sapiens, UniProt Q15418) (Q15418 whole entry): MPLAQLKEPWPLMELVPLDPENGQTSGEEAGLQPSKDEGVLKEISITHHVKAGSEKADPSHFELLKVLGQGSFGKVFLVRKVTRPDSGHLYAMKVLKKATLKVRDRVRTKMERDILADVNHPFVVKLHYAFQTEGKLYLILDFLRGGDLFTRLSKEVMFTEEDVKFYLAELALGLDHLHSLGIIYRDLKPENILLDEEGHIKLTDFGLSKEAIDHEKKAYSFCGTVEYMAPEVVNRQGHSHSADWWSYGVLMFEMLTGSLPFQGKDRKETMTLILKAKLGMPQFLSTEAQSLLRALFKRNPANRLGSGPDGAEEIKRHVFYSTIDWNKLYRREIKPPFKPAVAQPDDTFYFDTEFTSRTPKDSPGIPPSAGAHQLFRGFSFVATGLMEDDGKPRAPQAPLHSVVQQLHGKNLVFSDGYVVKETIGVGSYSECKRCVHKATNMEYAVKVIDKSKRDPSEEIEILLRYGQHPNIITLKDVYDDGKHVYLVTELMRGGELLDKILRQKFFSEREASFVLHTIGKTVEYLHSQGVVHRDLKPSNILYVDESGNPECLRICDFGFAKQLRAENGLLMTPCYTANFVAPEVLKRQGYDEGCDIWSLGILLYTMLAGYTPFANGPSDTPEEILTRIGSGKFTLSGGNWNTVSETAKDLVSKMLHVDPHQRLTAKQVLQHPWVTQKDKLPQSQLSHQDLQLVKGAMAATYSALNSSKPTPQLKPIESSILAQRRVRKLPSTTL
Sequence of various kinases (Homo sapiens, UniProt O00418) (O00418 whole entry): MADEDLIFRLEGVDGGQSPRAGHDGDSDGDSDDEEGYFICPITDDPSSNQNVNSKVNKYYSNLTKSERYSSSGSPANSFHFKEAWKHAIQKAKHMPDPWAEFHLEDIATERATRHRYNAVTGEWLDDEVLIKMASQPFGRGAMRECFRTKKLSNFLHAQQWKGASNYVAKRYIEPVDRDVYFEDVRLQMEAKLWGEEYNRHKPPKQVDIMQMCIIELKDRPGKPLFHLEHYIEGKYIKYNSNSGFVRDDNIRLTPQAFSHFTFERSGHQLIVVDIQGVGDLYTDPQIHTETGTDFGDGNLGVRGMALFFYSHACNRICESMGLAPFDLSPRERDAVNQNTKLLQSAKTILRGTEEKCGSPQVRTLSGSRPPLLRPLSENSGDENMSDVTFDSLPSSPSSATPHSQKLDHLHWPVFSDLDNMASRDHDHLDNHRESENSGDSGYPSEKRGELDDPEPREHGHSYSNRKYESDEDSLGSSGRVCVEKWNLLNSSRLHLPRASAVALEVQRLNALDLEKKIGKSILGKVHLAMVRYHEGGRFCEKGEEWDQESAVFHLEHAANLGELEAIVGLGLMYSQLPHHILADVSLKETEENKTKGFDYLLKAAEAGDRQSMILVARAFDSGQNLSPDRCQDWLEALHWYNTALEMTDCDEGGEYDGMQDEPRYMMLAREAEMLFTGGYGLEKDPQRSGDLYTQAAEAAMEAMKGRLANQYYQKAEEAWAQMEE
Sequence of various kinases (Homo sapiens, UniProt Q8N4C8) (Q8N4C8 whole entry): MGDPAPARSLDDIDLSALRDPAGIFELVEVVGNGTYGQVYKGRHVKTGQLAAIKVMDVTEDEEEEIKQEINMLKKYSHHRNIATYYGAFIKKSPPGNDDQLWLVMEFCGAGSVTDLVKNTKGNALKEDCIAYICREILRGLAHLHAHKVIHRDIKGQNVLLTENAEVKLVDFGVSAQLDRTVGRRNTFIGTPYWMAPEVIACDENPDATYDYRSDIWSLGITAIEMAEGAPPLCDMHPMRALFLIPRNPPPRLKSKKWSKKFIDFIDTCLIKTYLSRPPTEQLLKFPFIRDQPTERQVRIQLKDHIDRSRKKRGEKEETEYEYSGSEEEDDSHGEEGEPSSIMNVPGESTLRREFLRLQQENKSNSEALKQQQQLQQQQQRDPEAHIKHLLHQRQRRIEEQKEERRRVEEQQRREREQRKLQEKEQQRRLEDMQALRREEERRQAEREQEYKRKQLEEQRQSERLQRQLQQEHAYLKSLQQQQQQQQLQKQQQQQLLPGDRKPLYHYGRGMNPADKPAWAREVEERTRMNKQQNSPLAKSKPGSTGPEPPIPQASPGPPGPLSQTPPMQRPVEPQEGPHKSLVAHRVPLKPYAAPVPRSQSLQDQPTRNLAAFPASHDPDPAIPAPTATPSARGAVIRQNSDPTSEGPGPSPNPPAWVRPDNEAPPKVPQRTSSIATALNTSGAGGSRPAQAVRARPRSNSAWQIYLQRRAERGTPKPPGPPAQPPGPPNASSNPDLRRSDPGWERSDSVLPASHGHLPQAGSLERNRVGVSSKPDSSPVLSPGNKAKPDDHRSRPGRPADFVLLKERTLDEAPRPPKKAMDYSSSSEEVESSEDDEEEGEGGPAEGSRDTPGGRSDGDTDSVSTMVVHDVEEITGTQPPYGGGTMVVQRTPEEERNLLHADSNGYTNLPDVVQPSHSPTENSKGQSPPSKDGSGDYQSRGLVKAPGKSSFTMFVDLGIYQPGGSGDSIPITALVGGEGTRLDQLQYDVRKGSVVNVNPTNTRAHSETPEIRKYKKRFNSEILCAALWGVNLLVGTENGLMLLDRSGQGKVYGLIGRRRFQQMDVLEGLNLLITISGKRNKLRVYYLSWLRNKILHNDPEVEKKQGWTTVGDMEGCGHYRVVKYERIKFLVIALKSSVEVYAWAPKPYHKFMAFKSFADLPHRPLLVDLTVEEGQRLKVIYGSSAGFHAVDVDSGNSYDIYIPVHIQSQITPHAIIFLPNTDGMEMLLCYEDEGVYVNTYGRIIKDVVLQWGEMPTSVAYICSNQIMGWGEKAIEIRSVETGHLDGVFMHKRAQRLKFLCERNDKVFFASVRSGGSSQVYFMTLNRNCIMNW
Sequence of various kinases (Homo sapiens, UniProt Q16816) (Q16816 whole entry): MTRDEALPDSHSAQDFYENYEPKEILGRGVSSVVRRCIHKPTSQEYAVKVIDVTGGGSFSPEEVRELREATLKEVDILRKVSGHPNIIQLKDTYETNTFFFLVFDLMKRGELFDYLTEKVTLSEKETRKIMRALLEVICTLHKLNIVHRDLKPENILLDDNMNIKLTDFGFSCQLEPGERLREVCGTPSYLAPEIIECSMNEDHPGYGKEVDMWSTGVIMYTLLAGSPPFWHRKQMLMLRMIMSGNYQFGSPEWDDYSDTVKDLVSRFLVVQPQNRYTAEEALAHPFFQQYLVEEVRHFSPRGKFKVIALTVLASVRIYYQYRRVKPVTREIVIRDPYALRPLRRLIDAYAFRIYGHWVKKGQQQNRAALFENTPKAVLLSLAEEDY

In the case of COc1ccc2c(c1)[C@]1(C[C@H]1c1ccc3c(/C=C/c4ccc(CN5C[C@@H](C)O[C@@H](C)C5)cc4)n[nH]c3c1)C(=O)N2 [CFI-400945], the “% Inhibition” value (various kinases [1]) is reported as 5% and 4%, the “% Inhibition Average” value (various kinases [2]) is reported as 20% and the “% Inhibition Duplicate #1” value (various kinases [2]) is reported as 27%. The “% Inhibition Duplicate #2” value (various kinases [2]) was 13%, the “% Inhibition” value (various kinases [3]) was 3% and 0% and the “% Inhibition Average” value (various kinases [4]) was 3%. For the same compound, the “% Inhibition Duplicate #1” value (various kinases [4]) was 4%, the “% Inhibition Duplicate #2” value (various kinases [4]) was 2% and the “% Inhibition” value (various kinases [5]) was 2% and 5%. The “% Inhibition” value (various kinases [6]) was -1% and 8%, the “% Inhibition” value (various kinases [7]) was 28% and 26% and the “% Inhibition” value (various kinases [8]) was 2% and 3%. For the same compound, the “% Inhibition” value (various kinases [9]) was 9% and 13%, the “% Inhibition” value (various kinases [10]) was 7% and the “% Inhibition” value (various kinases [11]) was 7%. The “% Inhibition” value (various kinases [12]) was 2% and 5%, the “% Inhibition” value (various kinases [13]) was 1% and 0% and the “% Inhibition” value (various kinases [14]) was 4% and 5%. For the same compound, the “% Inhibition Average” value (various kinases [15]) was -3%, the “% Inhibition Duplicate #1” value (various kinases [15]) was -10% and the “% Inhibition Duplicate #2” value (various kinases [15]) was 3%. For the same compound, the “% Inhibition” value (various kinases [16]) was 2% and 0%, the “% Inhibition” value (various kinases [17]) was 13% and 12% and the “% Inhibition” value (various kinases [18]; JAK2) was 9%. The “% Inhibition” value (various kinases [18]; JAK2 JH1 JH2) was 7%, the “% Inhibition” value (various kinases [19]) was 58% and 63% and the “% Inhibition” value (various kinases [20]) was 28% and 37%. For the same compound, the “% Inhibition” value (various kinases [21]) was 10% and 7%, the “% Inhibition” value (various kinases [22]) was 11% and 6% and the “% Inhibition Average” value (various kinases [23]) was 11%. For the same compound, the “% Inhibition Duplicate #1” value (various kinases [23]) was 11%, the “% Inhibition Duplicate #2” value (various kinases [23]) was 11% and the “% Inhibition” value (various kinases [24]) was 10% and 4%. For the same compound, the “% Inhibition” value (various kinases [25]) was 11%, the “% Inhibition” value (various kinases [26]; LYN B) was 7% and 9% and the “% Inhibition Average” value (various kinases [26]; kinase PRKCB2 (PKC beta II)) was 13%. The “% Inhibition Duplicate #1” value (various kinases [26]; kinase PRKCB2 (PKC beta II)) was 12%, the “% Inhibition Duplicate #2” value (various kinases [26]; kinase PRKCB2 (PKC beta II)) was 14% and the “% Inhibition Average” value (various kinases [26]; kinase SRC N1) was 14%. The “% Inhibition Duplicate #1” value (various kinases [26]; kinase SRC N1) was 14%, the “% Inhibition Duplicate #2” value (various kinases [26]; kinase SRC N1) was 14% and the “% Inhibition” value (various kinases [27]) was 1% and 2%. The “% Inhibition Average” value (various kinases [28]) was 7%, the “% Inhibition Duplicate #1” value (various kinases [28]) was 7% and the “% Inhibition Duplicate #2” value (various kinases [28]) was 6%. The “% Inhibition” value (various kinases [29]) was 1% and 7%, the “% Inhibition” value (various kinases [30]) was 12% and 18% and the “% Inhibition” value (various kinases [31]) was 3% and 10%. For the same compound, the “% Inhibition” value (various kinases [32]) was 56% and the “% Inhibition” value (various kinases [33]) was 3% and 4%.
